This note sets out measurements from article PMC3071371, “Trypanosoma brucei Glycogen Synthase Kinase-3, A Target for Anti-Trypanosomal Drug Development: A Public-Private Partnership to Identify Novel Leads” (PLoS Neglected Tropical Diseases, 2011).

The target in one data set is T1, HsGSK-3 beta (Homo sapiens, UniProt P49841).
T1 construct: purchased Invitrogen
As to the kind of experiment: Human GSK-3 beta inhibition (Pfizer data files or Omnia Kinase Assay). The format is biochemical. The settings on record: recovered from Pfizer data files or Omnia Kinase Assay, mean of at least 2 replicates. The procedure: Human GSK-3 beta inhibition data (IC50) for many of the compounds were recovered from Pfizer data files. If historical data were not available, the compounds were tested in an assay using 10 nM HsGSK-3 beta (Invitrogen) using Omnia Kinase Assay (Invitrogen) according to the manufacturer's instructions. The reaction volume was 20 µL and a range of compound concentrations were tested, up to a maximum of 40 µM. Briefly, 5 µl of HsGSK-3 beta was dispensed into black 384 assay plates (Greiner bio one) containing 0.2 µl of compounds. The enzyme was incubated with the compounds for 15 minutes at 30°C then 15 µl of substrate mixture was added to each well to commence the reaction. The substrate mixture consisted of 2 µL each of 2× kinase reaction buffer, 10 µM Omina peptide substrate, 0.2 mM DTT and 10 µM ATP, and 7 µL of ultra pure water. The reaction was allowed to proceed for 30 minutes at 30°C. Increase in fluorescence levels indicating peptide phosphorylation by the enzyme was monitored using an Envision (PerkinElmer) with λex 360/λem 485 nm and the data were analysed using Pfizer software SIGHTS and Spotfire (TIBCO).

Another data set concerns the target T2, TbruGSK-3 short (Trypanosoma brucei brucei, UniProt Q388M1).
T2 construct: made in house
T2 sequence (Q388M1 1-352): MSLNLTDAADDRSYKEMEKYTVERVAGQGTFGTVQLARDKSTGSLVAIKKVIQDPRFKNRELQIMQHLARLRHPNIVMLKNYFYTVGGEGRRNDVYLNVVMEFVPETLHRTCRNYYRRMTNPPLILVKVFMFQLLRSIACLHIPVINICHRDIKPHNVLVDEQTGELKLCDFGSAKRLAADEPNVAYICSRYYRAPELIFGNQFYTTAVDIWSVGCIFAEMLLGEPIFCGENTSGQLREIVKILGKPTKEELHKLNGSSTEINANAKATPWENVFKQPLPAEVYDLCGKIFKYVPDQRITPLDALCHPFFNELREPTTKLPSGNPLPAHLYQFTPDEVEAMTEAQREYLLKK
The data set is described as follows: TbruGSK-3 short Kinase-Glo luminescent ATP depletion assay. The format is biochemical. The following applies: mean of at least 2 replicates; 2 µM ATP; read-out: Tbru GSK-3 short IC50. An excerpt:
Recombinant TbruGSK-3 short (accession number Tb10.161.3140) was produced at the University of Washington and shipped to Pfizer, Sandwich, UK for testing. Kinase-Glo reagent (Promega) was used as previously described. This luciferase coupled assay, which provides a luminescent quantification of ATP […] during the kinase reaction, was modified to a 384-well plate screening format. A selected library of 16,540 compounds comprising known HsGSK-3 beta inhibitors and close structural analogues was screened at 10 µM final assay concentration. Assay plates were prepared by dispensing 0.2 µL of compound (dissolved in 100% DMSO) from master plates into white 384-well plates (Greiner bio one). Primary screening was conducted in a 20 µL reaction volume. Enzyme was added to each well to a final concentration of 3.8 nM in a volume of 10 µl using a Multidrop Combi dispenser (Thermo Scientific) and the plates were incubated for 15 minutes at room temperature (RT). Glycogen synthase peptide 2 (BioGSP2; Sigma) and ATP, were dissolved in 20% acetonitrile and 1 M Tris-HCl pH 7.6 respectively, then diluted in assay buffer to a final concentration of 3.2 µM BioGSP2 and 2 µM ATP. The assay buffer consisted of 25 mM Tris-HCl pH 7.5, 10 mM MgCl2, 5 mM DTT, 0.1 mg/mL BSA, 2 U/mL Heparin and 10 µM EDTA. The reaction was initiated by adding 10 µL of the substrate mixture to each well and allowed to proceed at RT for 2 h. Twenty microlitres of Kinase-Glo reagent was added to quench the reaction. Luminescence was measured after 1 h at a 100 millisecond/well integration time using the Acquest Multimode plate reader (Molecular Devices). Each plate included a positive control (4 µM GW8510, Sigma) and negative control (1% DMSO). […] The data was analysed using Pfizer SIGHTS software and visualised using Spotfire software (TIBCO). Five separate 384-well plates were screened in duplicate to assess the assay reproducibility.

Data set [1] concerns T. brucei trypomastigotes (Squib-427 strain). As to the kind of experiment: T. brucei blood stage proliferation, resazurin. The format is cell-based. The following applies: Trypanosoma brucei; blood stage form, 72 hours incubation; read-out: Tbru parasite EC50. As to the method: (§1) Compounds with TbruGSK-3 short IC50<100 nM were tested for their ability to inhibit the proliferation of T. brucei (blood stage form). Cytotoxicity testing against human fetal lung fibroblast MRC-5 cell line was also performed. Both assays were carried out with compound concentrations up to 64 µM at the Laboratory for Microbiology, Parasitology and Hygiene, University of Antwerp (www.ua.ac.be). Briefly, T. brucei trypomastigotes (Squib-427 strain, suramin-sensitive) were cultured in Hirumi-9 medium supplemented with 10% fetal calf serum at 1.5×10^4 trypomastigotes per well. Following 72 hours incubation, parasite growth was assessed fluorimetrically by addition of resazurin. For cytotoxicity evaluation, 10^4 MRC-5 cells/well were seeded onto the test plates containing the pre-diluted compounds and incubated at 37°C with 5% CO2 for 72 hours. Cell viability was determined fluorimetrically after addition of resazurin [24], [25]. Single point kinase panel screening was also conducted on selected compounds at 10 µM by Invitrogen (www.Invitrogen.com) and University of Dundee, UK (www.dundee.ac.uk).
Background: Resazurin is reduced to fluorescent resorufin, in cell work by metabolically active cells.

The nature of data set [2]: Cytotoxicity against MRC-5 cell line, resazurin. Format: cell-based, human. The settings on record: human, MRC-5 fetal lung fibroblast cells; 72 hours incubation. As to the method: as §1
The subject of data set [3] is panel of approximately 40 human kinases. As to the kind of experiment: Single point human kinase panel screening. The format is biochemical. The settings on record: 10 µM. As to the method: as §1
A further data set deals with CaCo2 cell. As to the kind of experiment: CaCo2 cell flux assay. Format: in vitro ADME. The settings on record: data not shown.
Data set [4] deals with human fetal lung fibroblast MRC-5 cell line. The data set is described as follows: Cytotoxicity against MRC-5 cell line, resazurin. The format is cell-based. The following applies: ratio of EC50s. As to the method:
as §1

Molecules are shown by their SMILES. “Also recorded” adds a separate entry of the source. Some results are limits rather than exact numbers.

T1 sequence (P49841 whole entry): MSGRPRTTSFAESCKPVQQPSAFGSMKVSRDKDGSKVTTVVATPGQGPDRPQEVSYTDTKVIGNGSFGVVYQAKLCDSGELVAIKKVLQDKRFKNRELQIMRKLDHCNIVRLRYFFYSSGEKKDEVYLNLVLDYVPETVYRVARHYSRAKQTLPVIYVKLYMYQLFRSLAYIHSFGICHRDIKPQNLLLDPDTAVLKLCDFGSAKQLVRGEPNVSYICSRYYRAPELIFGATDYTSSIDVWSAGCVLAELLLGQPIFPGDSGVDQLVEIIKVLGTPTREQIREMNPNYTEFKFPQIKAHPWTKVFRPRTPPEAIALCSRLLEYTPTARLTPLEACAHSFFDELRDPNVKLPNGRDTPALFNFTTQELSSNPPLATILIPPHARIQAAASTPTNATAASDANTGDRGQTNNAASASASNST

As to `CCC(C(=O)Nc1cc([C@H]2C[C@@H](OC(=O)NCc3ccccn3)C2)[nH]n1)c1ccccc1` (some centres unmarked) [PF-00305135], the IC50 at HsGSK-3 beta stood at 3 nM; at TbruGSK-3 short it was 67 nM. Also, in data set [1], the EC50 amounted to 2450 nM. In data set [2], a half-maximal response (EC50 at 72 h) required 930 nM.

On to `Cc1cc(Nc2cc[nH]n2)nc(N(C)CCc2ccncc2)n1` [PF-01242377], for which the IC50 came out at 132 nM against HsGSK-3 beta and 61 nM at TbruGSK-3 short. In addition, the EC50 in data set [1] is 130 nM. For the same compound, in data set [2], a half-maximal effect (EC50 at 72 h) was put at 1180 nM.

Consider `O=c1ccc2cnc(Nc3ccc(N4CCC(CCCO)CC4)cc3)nc2n1C1CCCC1` [compound 0181276], for which the “human kinase panel specificity (in words)” value in data set [3] is given as “relatively specific against the wider human kinase panel”. Further, the values for the IC50 at HsGSK-3 beta and at TbruGSK-3 short were 4290 nM and 600 nM, respectively.

As for `CC(C)C(=O)Nc1cc([C@H]2C[C@@H](OC(=O)NCc3cccc(C(F)(F)F)c3F)C2)[nH]n1` [CE-325011], the IC50 on HsGSK-3 beta worked out at 5 nM; at TbruGSK-3 short it was 94 nM. The concentration for a half-maximal effect (EC50) in data set [1] came out at 1050 nM. In data set [2], a half-maximal effect (EC50 at 72 h) was put at 2320 nM.

`CCc1nn(CCC(=O)Nc2cc([C@H]3C[C@@H](NC(C)=O)C3)[nH]n2)c2ccccc12` [CE-160042]: the “human kinase panel specificity (in words)” value in data set [3] is “highly specific and only inhibited HsGSK-3 beta; also recorded: no significant inhibition of any other kinases”. The figures for the IC50 against HsGSK-3 beta and on TbruGSK-3 short were 32 nM and 142 nM, respectively. In addition, in data set [1], the EC50 was more than 25000 nM. Besides, the “cell permeability in CaCo2 cell flux assay” value with CaCo2 cell is “no detectable cell permeability”.

Take `CNCc1cncc(-c2ccc3[nH]nc(-c4nc5ccccc5[nH]4)c3c2)c1C` [AG-024290]: the IC50 turned out to be 173 nM on HsGSK-3 beta and 62 nM on TbruGSK-3 short. The EC50 in data set [1] was 130 nM. Also, the EC50 at 72 h in data set [2] came out at 130 nM.

Regarding `CNC(=O)[C@@H]1CCCN1c1nc(Cc2cccc(C#N)c2)cc(Nc2cc(C3CC3)[nH]n2)n1` [PF-02368935], the IC50 was less than 1000 nM at HsGSK-3 beta and 19 nM on TbruGSK-3 short. Moreover, the EC50 in data set [1] was 130 nM. The compound also displayed an EC50 at 72 h in data set [2] of 130 nM.

In the case of `CS(=O)(=O)c1ccc(S(=O)(=O)Nc2ccc3c(Cl)c(C(=O)N4CCc5ccccc5C4)sc3c2)cc1` [AG-02449], the IC50 at TbruGSK-3 short worked out at 69 nM. In addition, the EC50 in data set [1] is 130 nM. The compound also showed an EC50 at 72 h in data set [2] of 620 nM.

`O=c1ccc2cnc(Nc3ccccc3)nc2n1C1CC2CCC1C2` (centres unmarked) [compound 0180532]: the “number of other kinases with >50% inhibition” value in data set [3] is 4. Moreover, the 50% inhibitory concentration (IC50) on HsGSK-3 beta is 60 nM; on TbruGSK-3 short, 7270 nM.

Consider `CC(C)C(=O)Nc1cc([C@H]2C[C@@H](OC(=O)N(C)Cc3ccccc3)C2)[nH]n1` [CE-325692], for which the IC50 was 2 nM against HsGSK-3 beta and 65 nM at TbruGSK-3 short. The half-maximal effective concentration (EC50) in data set [1] is 640 nM. Besides, a half-maximal response in data set [2] (EC50 at 72 h) required 4670 nM.

Turning to `O=C(NCc1ccccc1)O[C@H]1C[C@@H](c2cc(NC(=O)C3CCCCC3)n[nH]2)C1` [PF-04279731], in data set [3], the “number of other kinases with >50% inhibition” value is 2. Further, the figures for the IC50 on HsGSK-3 beta and at TbruGSK-3 short were 1 nM and 62 nM, respectively. For the same compound, in data set [1], the EC50 was 1230 nM. Moreover, the EC50 at 72 h in data set [2] was found to be 1470 nM.

`O=C1NCCc2[nH]c(-c3ccnc(Nc4ccc(-n5cccn5)cc4)c3)cc21` [PF-04903528]: the IC50 at HsGSK-3 beta was 236 nM; at TbruGSK-3 short, 32 nM. Besides, the EC50 in data set [1] was 1130 nM. The EC50 at 72 h in data set [2] amounted to 1130 nM.

With `CCCC1=C(C#N)C(c2cccc3nonc23)c2cn[nH]c2N1` (centres unmarked) [CE-309608], the IC50 against HsGSK-3 beta is 46 nM; at TbruGSK-3 short it was 21 nM. Moreover, in data set [1], the EC50 came out at 2690 nM. Also, the response in data set [2] was half-maximal at 16000 nM (EC50 at 72 h).

With `CN(C)C[C@@H](NC(=O)c1ccc2[nH]nc(-c3nc4ccccc4[nH]3)c2c1)c1ccccc1` [PF-00744923], the IC50 at HsGSK-3 beta was less than 1000 nM; on TbruGSK-3 short, 70 nM. In addition, in data set [1], the EC50 was found to be 130 nM. Also, the midpoint of the response in data set [2], the EC50 at 72 h, lay at 130 nM.

Consider `O=C(NC1CCN(C(=O)Cc2ccccc2)C1)c1ccc2[nH]nc(-c3nc4ccccc4[nH]3)c2c1` (centres unmarked) [CE-317112], for which the IC50 against HsGSK-3 beta turned out to be 3 nM; on TbruGSK-3 short it was 99 nM. The EC50 in data set [1] is 1140 nM. The “selectivity window between T. brucei activity and activity on MRC5 cells” value in data set [4] is recorded as 35 fold. In data set [2], this compound returned an EC50 at 72 h of 39400 nM.

Take `CC(C)C(=O)Nc1cc([C@H]2C[C@@H](OC(=O)NCc3ccccc3Cl)C2)[nH]n1` [CE-324998]: the IC50 at HsGSK-3 beta came out at 1 nM; on TbruGSK-3 short, 93 nM. For the same compound, in data set [1], the EC50 amounted to 230 nM. The EC50 at 72 h in data set [2] worked out at 1220 nM.

For `Cc1cc2nc(N3CCc4nc[nH]c(=O)c4C3)nc(Nc3cc(C4CC4)[nH]n3)c2s1` [PF-00956933], the IC50 at HsGSK-3 beta is less than 1000 nM; at TbruGSK-3 short it was 57 nM. Further, the concentration for a half-maximal effect (EC50) in data set [1] was determined as 130 nM. The same compound displayed an EC50 at 72 h in data set [2] of 2170 nM.

Usually IC50 stands for the concentration that gives 50% inhibition. One may read the EC50 as the concentration that produces a half-maximal response.
